The values below come from patent publication US8318928B2, “Fused imidazole carboxamides as TRPV3 modulators” (Glenmark Pharmaceuticals, S.A., priority 2008, dated 2012).

The term inhibition denotes the drop in the measured response relative to a control, in per cent. For orientation: IC50 means the concentration that gives 50% inhibition.

The target in the test is T1, Human TRPV3 expressing CHO cells (Homo sapiens, UniProt Q8NET8).
T1 construct: expressed in transfected cells; host or cells: CHO cells, kept under G-418 selection
T1 sequence (Q8NET8 1-790): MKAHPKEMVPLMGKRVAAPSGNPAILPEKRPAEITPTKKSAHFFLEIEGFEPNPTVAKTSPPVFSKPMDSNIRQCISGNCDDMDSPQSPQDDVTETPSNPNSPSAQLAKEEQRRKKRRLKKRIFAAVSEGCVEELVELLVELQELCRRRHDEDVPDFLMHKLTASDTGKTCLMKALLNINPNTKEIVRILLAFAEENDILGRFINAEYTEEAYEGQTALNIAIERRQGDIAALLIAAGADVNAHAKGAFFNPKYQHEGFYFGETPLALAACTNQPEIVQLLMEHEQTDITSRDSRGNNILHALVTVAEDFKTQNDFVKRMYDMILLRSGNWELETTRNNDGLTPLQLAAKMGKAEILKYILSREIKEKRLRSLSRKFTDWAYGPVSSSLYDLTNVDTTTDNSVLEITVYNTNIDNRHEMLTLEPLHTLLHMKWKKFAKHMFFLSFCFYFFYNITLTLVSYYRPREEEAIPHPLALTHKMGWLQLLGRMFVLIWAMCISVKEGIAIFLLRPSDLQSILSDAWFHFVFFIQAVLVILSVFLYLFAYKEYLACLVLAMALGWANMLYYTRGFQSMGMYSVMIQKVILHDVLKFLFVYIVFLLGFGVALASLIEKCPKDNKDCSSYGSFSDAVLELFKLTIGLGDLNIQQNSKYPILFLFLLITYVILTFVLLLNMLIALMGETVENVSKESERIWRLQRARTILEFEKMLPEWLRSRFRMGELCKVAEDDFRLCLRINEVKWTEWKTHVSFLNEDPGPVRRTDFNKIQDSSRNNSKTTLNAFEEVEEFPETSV
As to the kind of experiment: 45Calcium uptake assay: inhibition of 2-APB induced cellular uptake of radioactive calcium. In kind it is cell-based. To be noted: 2-APB 500 μM; for inhibition at 1 µM: compound at 1.0 μM, read-out: Percentage inhibition at 1.0 μM; for inhibition at 10 µM: compound at 10.0 μM, read-out: Percentage inhibition at 10.0 μM; for IC50: class symbols. The text has this:
Certain illustrative compounds within the scope of the present invention are screened for TRPV3 activity according to a modified procedure described in (a) Tóth, A. et al. Life Sciences 2003, 73, 487-498. (b) McNamara C, R. et al. Proc. Natl. Acad. Sci. U.S.A., 2007, 104, 13525-13530. The screening of the compounds may be carried out by other methods and procedures known to persons skilled in the art.
Screening for TRPV3 Antagonist Using the ^45Calcium Uptake Assay
The inhibition of TRPV3 receptor activation was followed as inhibition of 2-aminoethxydiphenylborate (2-APB) induced cellular uptake of radioactive calcium. Test compounds were dissolved in dimethyl sulfoxide (DMSO) to prepare 20 mM stock solution and then diluted using plain medium with DMEM/F-12 containing 1.8 mM CaCl2 to get desired concentration. Final concentration of DMSO in the reaction was 0.5% (v/v). Human TRPV3 expressing CHO cells were grown in DMEM/F-12 medium with 10% FBS, 1% penicillin-streptomycin solution, 400 μg/mL of G-418. Cells were seeded 24 h prior to the assay in 96 well plates so as to get ˜50,000 cells per well on the day of experiment. Cells were treated with test compounds for 10 minutes followed by addition of 2-APB at a final concentration of 500 μM and 5 μCi/mL ^45Ca^+2 for 4 minutes. Cells were washed and lysed using buffer containing 1% Triton X-100, 0.1% deoxycholate and 0.1% SDS. Radioactivity in the lysate was measured in Packardt Top count after addition of liquid scintillant. Concentration response curves were plotted as a % of maximal response obtained in the absence of test antagonist. IC50 value was calculated from concentration response curve by nonlinear regression analysis using GraphPad PRISM software.
Percentage inhibition at concentrations of 1.0 μM and 10.0 μM are given in the table along with IC50 (nM) details for selected examples.

Each structure is given as a SMILES string.

Turning to `O=C(Nc1nc(C(F)(F)F)cs1)c1c(/C=C/c2cccc(O)c2O)nc2sccn12` [Example 19, 6-[(E)-2-(2,3-Dihydroxyphenyl)vinyl]-N-[4-(trifluoromethyl)-1,3-thiazol-2-yl]imidazo[2,1-b][1,3]thiazole-5-carboxamide], the inhibition at 1 µM was found to be 13.9% and the inhibition at 10 µM stood at 4.88%.
For `CC(C)c1csc(NC(=O)c2c(/C=C/c3cccc(OC(F)F)c3OCC(C)(C)C)nc3sccn23)n1` [Example 20, 6-{(E)-2-[2-(2,2-Dimethylpropoxy)-3-(difluoromethoxy)phenyl]vinyl}-N-(4-isopropyl-1,3-thiazol-2-yl)imidazo[2,1-b][1,3]thiazole-5-carboxamide] the same measures were 53.3% and 81.7%.
Take `CC(C)(C)COc1c(/C=C/c2nc3sccn3c2C(=O)Nc2nc(C(C)(C)C)cs2)cccc1OC(F)F` [Example 21, 6-[(E)-2-(3-(Difluoromethoxy)-2-(2,2-dimethylpropoxy)-phenyl)vinyl]-N-(4-tert-butyl-1,3-thiazol-2-yl)imidazo[2,1-b][1,3]thiazole-5-carboxamide]: the IC50 lay in the range of 100 to 250 nM, the inhibition at 1 µM came to 80.8% and the inhibition at 10 µM is 89.8%.
For the compound `CC(C)(C)COc1c(/C=C/c2nc3sccn3c2C(=O)Nc2nc(C3CCC3)cs2)cccc1OC(F)F` [Example 22, 6-{(E)-2-[2-(2,2-Dimethylpropoxy)-3-(difluoromethoxy)phenyl]vinyl}-N-(4-cyclobutyl-1,3-thiazol-2-yl)imidazo[2,1-b][1,3]thiazole-5-carboxamide], the inhibition at 1 µM is 47.9% and the inhibition at 10 µM stood at 86.5%.
For `CC(C)(C)COc1c(/C=C/c2nc3sccn3c2C(=O)Nc2nc(C3CC3)cs2)cccc1OC(F)F` [Example 23, 6-{(E)-2-[2-(2,2-Dimethylpropoxy)-3-(difluoromethoxy)phenyl]vinyl}-N-(4-cyclo-propyl-1,3-thiazol-2-yl)imidazo[2,1-b][1,3]thiazole-5-carboxamide], the IC50 was below 100 nM, the inhibition at 1 µM is 93.2% and the inhibition at 10 µM amounted to 90%.
As for `CC(C)(C)COc1c(/C=C/c2nc3sccn3c2C(=O)Nc2cccc(C(F)(F)F)c2)cccc1OC(F)F` [Example 24, 6-{(E)-2-[3-(Difluoromethoxy)-2-(2,2-dimethylpropoxy)phenyl]vinyl}-N-(3-trifluoromethylphenyl)imidazo[2,1-b][1,3]thiazole-5-carboxamide], the inhibition at 1 µM was determined as 22.5% and the inhibition at 10 µM came out at 37.3%.
Regarding `CC(C)(C)COc1c(/C=C/c2nc3sccn3c2C(=O)NCc2cccc(C(F)(F)F)c2)cccc1OC(F)F` [Example 25, 6-{(E)-2-[3-(Difluoromethoxy)-2-(2,2-dimethylpropoxy)phenyl]vinyl}-N-(3-trifluoromethylbenzyl)imidazo[2,1-b][1,3]thiazole-5-carboxamide], the inhibition at 1 µM was determined as 0% and the inhibition at 10 µM worked out at 18.2%.
Consider `CC(C)(C)COc1c(/C=C/c2nc3sccn3c2C(=O)Nc2ccc(C#N)cn2)cccc1OC(F)F` [Example 26, N-(5-Cyanopyridin-2-yl)-6-{(E)-2-[3-(difluoromethoxy)-2-(2,2-dimethylpropoxy)phenyl]vinyl}imidazo[2,1-b][1,3]thiazole-5-carboxamide], for which the inhibition at 1 µM worked out at 70.1% and the inhibition at 10 µM came out at 77.5%.
With `CC(C)(C)COc1c(/C=C/c2nc3sccn3c2C(=O)Nc2ncc(C(F)(F)F)cc2Cl)cccc1OC(F)F` [Example 27, N-[3-Chloro-5-(trifluoromethyl)pyridin-2-yl]-6-{(E)-2-[3-(difluoromethoxy)-2-(2,2-dimethylpropoxy)phenyl]vinyl}imidazo[2,1-b][1,3]thiazole-5-carboxamide], the inhibition at 1 µM came out at 25.7% and the inhibition at 10 µM was 33.9%.
As to `CC(C)(C)COc1c(/C=C/c2nc3sccn3c2C(=O)Nc2nc3c(s2)CCC3)cccc1OC(F)F` [Example 28, 6-{(E)-2-[2-(2,2-Dimethylpropoxy)-3-(difluoromethoxy)phenyl]vinyl}-N-(5,6-dihydro-4H-cyclopenta[d][1,3]thiazol-2-yl)imidazo[2,1-b][1,3]thiazole-5-carboxamide], the inhibition at 1 µM amounted to 9.45% and the inhibition at 10 µM was determined as 15.6%.
For the compound `CC(C)(C)COc1c(/C=C/c2nc3sccn3c2C(=O)Nc2nc3ccc(F)cc3s2)cccc1OC(F)F` [Example 29, 6-{(E)-2-[3-(Difluoromethoxy)-2-(2,2-dimethylpropoxy)phenyl]vinyl}-N-(6-fluoro-1,3-benzothiazol-2-yl)imidazo[2,1-b][1,3]thiazole-5-carboxamide], the inhibition at 1 µM was 24% and the inhibition at 10 µM is 15.3%.
For `CC(C)(C)COc1c(/C=C/c2nc3sccn3c2C(=O)NCCC#N)cccc1OC(F)F` [Example 30, N-(2-Cyanoethyl)-6-{(E)-2-[3-(difluoromethoxy)-2-(2,2-dimethylpropoxy)phenyl]vinyl}imidazo[2,1-b][1,3]thiazole-5-carboxamide], the inhibition at 1 µM stood at 21.1% and the inhibition at 10 µM turned out to be 94%.
For `CC(C)(C)COc1c(/C=C/c2nc3sccn3c2C(=O)NCC(F)(F)F)cccc1OC(F)F` [Example 31, 6-{(E)-2-[3-(Difluoromethoxy)-2-(2,2-dimethylpropoxy)phenyl]vinyl}-N-(2,2,2-trifluoroethyl)imidazo[2,1-b][1,3]thiazole-5-carboxamide] the same measures were 60.9% and 97.7%.
Consider `CC(C)CCOc1c(/C=C/c2nc3sccn3c2C(=O)Nc2nc(C(F)(F)F)cs2)cccc1OC(F)F` [Example 32, 6-{(E)-2-[3-(Difluoromethoxy)-2-[3-methylbutoxy)phenyl]vinyl}-N-[4-(trifluoromethyl)-1,3-thiazol-2-yl]imidazo[2,1-b][1,3]thiazole-5-carboxamide], for which the inhibition at 1 µM turned out to be 63.7% and the inhibition at 10 µM was determined as 96.6%.
As to `CCCCCOc1c(/C=C/c2nc3sccn3c2C(=O)Nc2nc(C(F)(F)F)cs2)cccc1OC(F)F` [Example 33], the inhibition at 1 µM came out at 51.8% and the inhibition at 10 µM came out at 93.1%.
Turning to `CCCCCOc1c(/C=C/c2nc3sccn3c2C(=O)Nc2nc(C3CC3)cs2)cccc1OC(F)F` [Example 34], the IC50 is 100 to 250 nM, the inhibition at 1 µM was determined as 78.1% and the inhibition at 10 µM was found to be 95%.
For `O=C(Nc1nc(C2CC2)cs1)c1c(/C=C/c2cccc(OC(F)F)c2OCC2CCC2)nc2sccn12` [Example 35, 6-{(E)-2-[2-(Cyclobutylmethoxy)-3-(difluoromethoxy)phenyl]vinyl}-N-(4-cyclopropyl-1,3-thiazol-2-yl)imidazo[2,1-b][1,3]thiazole-5-carboxamide] the same measures were below 100 nM, 84.3% and 96.5%.
Consider `O=C(Nc1nc(C(F)(F)F)cs1)c1c(/C=C/c2cccc(OC(F)F)c2OCC2CCC2)nc2sccn12` [Example 36, 6-{(E)-2-[2-(Cyclobutylmethoxy)-3-(difluoromethoxy)phenyl]vinyl}-N-[4-(trifluoro-methyl)-1,3-thiazol-2-yl]imidazo[2,1-b][1,3]thiazole-5-carboxamide], for which the IC50 was in the range of 100 to 250 nM, the inhibition at 1 µM came to 93.7% and the inhibition at 10 µM worked out at 97.7%.
On to `COc1cccc(/C=C/c2nc3ccccn3c2C(=O)Nc2nc(C(F)(F)F)cs2)c1OCC(C)(C)C` [Example 37], for which the IC50 was below 100 nM, the inhibition at 1 µM is 94.9% and the inhibition at 10 µM worked out at 97.9%.
